Experimental data reported in US5750523A, “Pyridazinone derivatives” (Nissan Chemical Industries, Ltd., priority 1994, dated 1998).
Structures can show the parent of a compound that is named as a salt. Where two headings read alike, the source gives them in different places.

How the values were obtained:
[1] = test system: Rabbit PRP (platelet aggregation); test: Antiplatelet aggregation effect, rabbit platelet rich plasma (PRP); format: cell-based, male Japanese white rabbits; conditions: 37° C., 2 minutes incubation, Table III
Protocol: (§1) Blood was collected from the abdominal aortae of male Wister rats (weight: 200 to 300 g) or male Japanese white rabbits (weight: 1.8 to 2.5 kg) into a syringe containing 1/10 volume 3.8% sodium citrate. The blood thus obtained was centrifuged at 200×g for 7 minutes at room temperature to obtain platelet rich plasma (PRP). Furthermore, the residue was centrifuged at 2000×g for 10 minutes to obtain platelet poor plasma (PPP). The measurement was effected by diluting PRP and PPP to 300,000/mm^3. PRP and PPP were put in cuvettes, and the measurement range of transmittance was adjusted to 0% in the case of PRP and to 100% in the case of PPP. Thereafter, a test sample drug dissolved in 100% dimethyl sulfoxide (DMSO) was added to PRP (the final concentration of DMSO: 0.25%). After incubation at 37° C. and 900 rpm for 2 minutes, an aggregating agent was added to measure an aggregation curve. The antiplatelet aggregation effect of the test sample drug was expressed by a concentration, IC50 (μM), at which the aggregation of control sample was 50% inhibited. The aggregating agents ADP and collagen were used at minimum concentrations (ADP: 5 to 10 μM: collagen : 2.5 to 10 μg/ml) which caused maximum aggregation. The measurement of platelet aggregation was carried out by using NBS HEMA TRACER 601.
(§2) Tables II and III show antiplatelet aggregation effects of test compounds evaluated as IC50 values (μM).
As a comparative compound, the following compound disclosed in reference (d) was used. [drawing 20]

[2] = test system: Rat PRP (platelet aggregation); test: Antiplatelet aggregation effect, rat platelet rich plasma (PRP); format: cell-based, male Wister rats; conditions: 37° C., 2 minutes incubation, Table II
Protocol: as §1, §2

[3] = test system: rabbit thoracic aorta ring specimen; test: Vasodilation effect, relaxation of phenylephrine contraction of rabbit thoracic aorta ring; conditions: Oryctolagus cuniculus; contraction by phenylephrine 10^-5 M; cumulative administration from 3×10^-9 M; papaverine hydrochloride 10^-4 M = 100%; Table IV
Protocol: By using a rabbit thoracic aorta ring specimen, the relaxation effect of a test sample drug on contraction by phenylephrine (10^-5 M) was evaluated. A test sample drug was administered cumulatively from a concentration of 3×10^-9 M, after the contraction became stable. The results were expressed on the basis that the relaxation effect of papaverine hydrochloride (10^-4 M) was 100%.
The comparative compound was the same as in Test Example 1.

[4] = Oryctolagus cuniculus, Platelet, 2 min, aggregating agent ADP 5 to 10 μM, read-out: Rabbit PRP IC50, ADP
[5] = Oryctolagus cuniculus, Platelet, 2 min, aggregating agent collagen 2.5 to 10 μg/ml, read-out: Rabbit PRP IC50, Collagen
[6] = Rattus norvegicus, Platelet, 2 min, aggregating agent ADP 5 to 10 μM, read-out: Rat PRP IC50, ADP

Compound | IC50 [1, 4] [nM] | IC50 [1, 5] [nM] | IC50 [2, 6] [nM] | EC50 [3] [nM] | also measured
O=C1CCc2cc(OCCCCc3nnnn3C3CCCCC3)ccc2N1 [Cilostazol, reference compound] | 15000 | 2400 |  |  | 
O=c1[nH]nc(OCCC(O)c2ccc(Cl)cc2)c(NCc2cccnc2)c1Br (centres unmarked) [Compound No. 65, 4-bromo-6-[3-(4-chlorophenyl)-3-hydroxypropyloxy]-5-(3-pyridylylmethylamino)-3(2H)pyridazinone hydrochloride] |  |  |  |  | IC50 ([2]; aggregating agent ADP 5 to 10 μM, hydrochloride, read-out: Rat PRP IC50, ADP): 210 nM; IC50 ([2]; aggregating agent collagen 2.5 to 10 μg/ml, hydrochloride, read-out: Rat PRP IC50, Collagen): 220 nM; IC50 ([1]; aggregating agent ADP 5 to 10 μM, hydrochloride, read-out: Rabbit PRP IC50, ADP): 53 nM; IC50 ([1]; aggregating agent collagen 2.5 to 10 μg/ml, hydrochloride, read-out: Rabbit PRP IC50, Collagen): 19 nM
COc1ccc(CNc2c(OCCC(O)c3ccc(Cl)cc3)n[nH]c(=O)c2Br)cc1OC (centres unmarked) [Compound No. 2, 4-bromo-6-[3-(4-chlorophenyl)-3-hydroxypropyloxy]-5-(3,4-dimethoxybenzylamino)-3(2H)pyridazinone] | 41 | 20 | 72 |  | IC50 ([2]; Rattus norvegicus, Platelet, 2 min, aggregating agent collagen 2.5 to 10 μg/ml, read-out: Rat PRP IC50, Collagen): 190 nM
O=c1[nH]nc(OCCC(O)c2ccc(Cl)cc2)c(NCc2cccnc2)c1Br (centres unmarked) [Compound No. 1, 4-bromo-6-[3-(4-chlorophenyl)-3-hydroxypropyloxy]-5-(3-pyridylylmethylamino)-3(2H)pyridazinone] | 50 | 10 | 230 | 1300 | IC50 ([2]; aggregating agent collagen 2.5 to 10 μg/ml, read-out: Rat PRP IC50, Collagen): 99 nM
O=c1[nH]nc(OCCCc2ccc(Cl)cc2)c(NCc2cccnc2)c1Br [Comparative Compound, reference compound] | 81 | 17 |  | 400 | 
O=c1[nH]nc(OCC[C@@H](O)c2ccc(Cl)cc2)c(NCc2cccnc2)c1Br [Compound No. 93, 4-bromo-6-[(3R)-3-(4-chlorophenyl)-3-hydroxylpropyloxy]-5-(3-pyridylylmethylamino)-3(2H)pyridazinone hydrochloride] | 47 | 9.7 |  |  | 
